# Reference: patent US6737383B1, “Herbicidal oxadiazolidines” (priority 1999, dated 2004)
# Tests used:
# purple nutsedge = assay: Test B pre/postemergence purple nutsedge; type: in vivo, Cyperus rotundus
# Method in brief: (§1)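 Test chemicals in a non-phytotoxic solvent mixture with surfactant were sprayed preemergence onto planted seeds and postemergence onto plants 2 to 18 cm tall (1- to 4-leaf stage). After twelve to sixteen days in a greenhouse, injury was visually rated against untreated controls from 0 (no effect) to 10 (complete control).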
# wild oat = assay: Test B pre/postemergence wild oat; type: in vivo, Avena fatua
# Method in brief: as §1
# rice = assay: Test B flood test rice; type: in vivo, Oryza sativa
# Method in brief: (§2)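 Flood test on plants grown to the 2-leaf stage; treated plants kept in greenhouse twelve to sixteen days, then visually rated against controls on a 0 (no effect) to 10 (complete control) scale.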
# wheat = assay: Test B pre/postemergence wheat; type: in vivo, Triticum aestivum
# Method in brief: as §1
# cocklebur = assay: Test B pre/postemergence cocklebur; type: in vivo, Xanthium strumarium
# Method in brief: as §1
# blackgrass = assay: Test B pre/postemergence blackgrass; type: in vivo, Alopecurus myosuroides
# Method in brief: as §1
# pigweed = assay: Test B pre/postemergence pigweed; type: in vivo, Amaranthus retroflexus
# Method in brief: as §1
# crabgrass = assay: Test B pre/postemergence crabgrass; type: in vivo, Digitaria sanguinalis
# Method in brief: as §1
# surinam grass = assay: Test B pre/postemergence surinam grass; type: in vivo, Brachiaria decumbens
# Method in brief: as §1
# sugar beet = assay: Test B pre/postemergence sugar beet; type: in vivo, Beta vulgaris
# Method in brief: as §1
# corn = assay: Test B pre/postemergence corn; type: in vivo, Zea mays
# Method in brief: as §1
# rape = assay: Test B pre/postemergence rape; type: in vivo, Brassica napus
# Method in brief: as §1
# morningglory = assay: Test B pre/postemergence morningglory; type: in vivo, Ipomoea hederacea
# Method in brief: as §1
# bedstraw = assay: Test B pre/postemergence bedstraw; type: in vivo, Galium aparine
# Method in brief: as §1
# giant foxtail = assay: Test B pre/postemergence giant foxtail; type: in vivo, Setaria faberii
# Method in brief: as §1
# bamyardgrass = assay: Test B flood test barnyardgrass; type: in vivo, Echinochloa crus-galli
# Method in brief: as §2
# [1] = Postemergence, Rate 62 g/ha, scale 0 to 10, 0 is no effect, 10 is complete control
# [2] = Postemergence, Rate 125 g/ha, scale of 0 to 10 where 0 is no effect and 10 is complete control
# [3] = Preemergence, Rate 62 g/ha, scale of 0 to 10 where 0 is no effect and 10 is complete control
# [4] = Preemergence, Rate 125 g/ha, scale of 0 to 10 where 0 is no effect and 10 is complete control
# [5] = Preemergence, Rate 500 g/ha, scale of 0 to 10 where 0 is no effect and 10 is complete control
# [6] = Rate 500 g/ha, Postemergence, scale 0 to 10, 0 is no effect, 10 is complete control
# [7] = Rate 62 g/ha, flood test species, Pre-emergence, visual evaluation after twelve to sixteen days
# [8] = Rate 125 g/ha, under heading Pre-emergence, flood test species, visual evaluation after twelve to sixteen days
# [9] = Rate 250 g/ha, Pre-emergence (flood test species), scale 0 to 10, 0 is no effect, 10 is complete control
# [10] = Rate 500 g/ha, Pre-emergence section of Table B, 0 to 10 scale (0 no effect, 10 complete control)
# [11] = Postemergence, Rate 250 g/ha, scale of 0 to 10, 0 is no effect, 10 is complete control
# [12] = Preemergence, Rate 250 g/ha, scale 0 to 10 (0 no effect, 10 complete control)
smiles,measurement,setting,value
CC(C)N(C(=O)n1oc(=O)n(CCCC#N)c1=O)c1ccc(F)cc1F [Compound 675],"Plant response rating, Nutsedge",purple nutsedge; [1],0
same,Nutsedge plant response rating,purple nutsedge; [2],0
same,Nutsedge plant response rating,purple nutsedge; [3],0
same,"Plant response rating, Nutsedge",purple nutsedge; [4],0
same,"Plant response rating, Nutsedge",purple nutsedge; [5],7
same,Nutsedge plant response rating,purple nutsedge; [6],8
same,"Plant response rating, Wild oats",wild oat; [1],0
same,Wild oats plant response rating,wild oat; [2],0
same,Wild oats plant response rating,wild oat; [3],4
same,"Plant response rating, Wild oats",wild oat; [4],5
same,"Plant response rating, Wild oats",wild oat; [5],10
same,Wild oats plant response rating,wild oat; [6],7
same,"Plant response rating, Rice (0 to 10 scale, 0 is no effect, 10 is complete control)",rice; [7],0
same,"Rice plant response rating (0 to 10 scale, 0 is no effect, 10 is complete control)",rice; [8],0
same,Rice plant response rating,rice; [9],0
same,Rice plant response rating,rice; [10],0
same,"Plant response rating, Wheat",wheat; [1],0
same,Wheat plant response rating,wheat; [2],3
same,Wheat plant response rating,wheat; [3],0
same,"Plant response rating, Wheat",wheat; [4],2
same,"Plant response rating, Wheat",wheat; [5],9
same,Wheat plant response rating,wheat; [6],7
same,"Plant response rating, Cocklebur",cocklebur; [1],0
same,Cocklebur plant response rating,cocklebur; [2],3
same,Cocklebur plant response rating,cocklebur; [11],3
same,Cocklebur plant response rating,cocklebur; [3],0
same,"Plant response rating, Cocklebur",cocklebur; [4],0
same,"Plant response rating, Cocklebur",cocklebur; [12],0
same,"Plant response rating, Cocklebur",cocklebur; [5],0
same,Cocklebur plant response rating,cocklebur; [6],3
same,"Plant response rating, Blackgrass",blackgrass; [1],5
same,Blackgrass plant response rating,blackgrass; [2],5
same,Blackgrass plant response rating,blackgrass; [11],7
same,Blackgrass plant response rating,blackgrass; [3],5
same,"Plant response rating, Blackgrass",blackgrass; [4],9
same,"Plant response rating, Blackgrass",blackgrass; [12],9
same,"Plant response rating, Blackgrass",blackgrass; [5],10
same,Blackgrass plant response rating,blackgrass; [6],9
same,"Plant response rating, Redroot pigweed",pigweed; [1],2
same,Redroot pigweed plant response rating,pigweed; [2],2
same,Redroot pigweed plant response rating,pigweed; [3],5
same,"Plant response rating, Redroot pigweed",pigweed; [4],9
same,"Plant response rating, Redroot pigweed",pigweed; [5],10
same,Redroot pigweed plant response rating,pigweed; [6],8
same,"Plant response rating, Crabgrass",crabgrass; [1],6
same,Crabgrass plant response rating,crabgrass; [2],8
same,Crabgrass plant response rating,crabgrass; [11],9
same,Crabgrass plant response rating,crabgrass; [3],6
same,"Plant response rating, Crabgrass",crabgrass; [4],7
same,"Plant response rating, Crabgrass",crabgrass; [12],9
same,"Plant response rating, Crabgrass",crabgrass; [5],10
same,Crabgrass plant response rating,crabgrass; [6],9
same,"Plant response rating, B. signalgrass",surinam grass; [1],1
same,B. signalgrass plant response rating,surinam grass; [2],4
same,B. signalgrass plant response rating,surinam grass; [11],8
same,B. signalgrass plant response rating,surinam grass; [3],4
same,"Plant response rating, B. signalgrass",surinam grass; [4],6
same,"Plant response rating, B. signalgrass",surinam grass; [12],8
same,"Plant response rating, B. signalgrass",surinam grass; [5],10
same,B. signalgrass plant response rating,surinam grass; [6],8
same,"Plant response rating, Sugarbeets",sugar beet; [1],0
same,Sugarbeets plant response rating,sugar beet; [2],2
same,Sugarbeets plant response rating,sugar beet; [3],5
same,"Plant response rating, Sugarbeets",sugar beet; [4],7
same,"Plant response rating, Sugarbeets",sugar beet; [5],10
same,Sugarbeets plant response rating,sugar beet; [6],4
same,"Plant response rating, Corn",corn; [1],0
same,Corn plant response rating,corn; [2],0
same,Corn plant response rating,corn; [11],0
same,Corn plant response rating,corn; [3],0
same,"Plant response rating, Corn",corn; [4],3
same,"Plant response rating, Corn",corn; [12],6
same,"Plant response rating, Corn",corn; [5],9
same,Corn plant response rating,corn; [6],6
same,"Plant response rating, Rape",rape; [1],0
same,Rape plant response rating,rape; [2],0
same,Rape plant response rating,rape; [3],2
same,"Plant response rating, Rape",rape; [4],3
same,"Plant response rating, Rape",rape; [5],10
same,Rape plant response rating,rape; [6],3
same,"Plant response rating, Morningglory",morningglory; [1],1
same,Morningglory plant response rating,morningglory; [2],2
same,Morningglory plant response rating,morningglory; [11],2
same,Morningglory plant response rating,morningglory; [3],0
same,"Plant response rating, Morningglory",morningglory; [4],0
same,"Plant response rating, Morningglory",morningglory; [5],6
same,Morningglory plant response rating,morningglory; [6],4
same,"Plant response rating, Bedstraw",bedstraw; [1],0
same,Bedstraw plant response rating,bedstraw; [2],1
same,Bedstraw plant response rating,bedstraw; [11],6
same,Bedstraw plant response rating,bedstraw; [3],0
same,"Plant response rating, Bedstraw",bedstraw; [4],2
same,"Plant response rating, Bedstraw",bedstraw; [12],10
same,"Plant response rating, Bedstraw",bedstraw; [5],10
same,"Plant response rating, Giant foxtail",giant foxtail; [1],8
same,Giant foxtail plant response rating,giant foxtail; [2],9
same,Giant foxtail plant response rating,giant foxtail; [11],9
same,Giant foxtail plant response rating,giant foxtail; [3],9
same,"Plant response rating, Giant foxtail",giant foxtail; [4],10
same,"Plant response rating, Giant foxtail",giant foxtail; [5],10
same,Giant foxtail plant response rating,giant foxtail; [6],9
same,"Plant response rating, Barnyardgrass (0 to 10 scale, 0 is no effect, 10 is complete control)",bamyardgrass; [7],0
same,"Barnyardgrass plant response rating (0 to 10 scale, 0 is no effect, 10 is complete control)",bamyardgrass; [8],0
same,Barnyardgrass plant response rating,bamyardgrass; [9],0
same,Barnyardgrass plant response rating,bamyardgrass; [10],0
